For this experiment, the target named is T1, human V1a receptor (Homo sapiens, UniProt P37288).
T1 construct: expressed in transfected cells; host or cells: HEK293 cells, transiently transfected; membrane preparation
Briefly: human V1a receptor binding (3H-Vasopressin SPA, HEK293 membranes). To be noted: displacement of 3H-Vasopressin; membranes of HEK293 cells transiently transfected with human V1a receptor; Ki from IC50 by Cheng-Prussoff equation. As for the experimental part:
The human V1a receptor was cloned by RT-PCR from total human liver RNA. The coding sequence was subcloned in an expression vector after sequencing to confirm the identity of the amplified sequence. […] Cell membranes were prepared from HEK293 cells transiently transfected with the expression vector and grown in 20 liter fermenters with the following protocol.
50 g of cells are resuspended in 30 ml freshly prepared ice cold Lysis buffer (50 mM HEPES, 1 mM EDTA, 10 mM MgCl2 adjusted to pH=7.4+complete cocktail of protease inhibitor (Roche Diagnostics)). Homogenized with Polytron for 1 min and sonicated on ice for 2×2 minutes at 80% intensity (Vibracell sonicator). The preparation is centrifuged 20 min at 500 g at 4° C., the pellet is discarded and the supernatant centrifuged 1 hour at 43,000 g at 4° C. (19,000 rpm). The pellet is resuspended in 12.5 ml Lysis buffer+12.5 ml Sucrose 20% and homogenized using a Polytron for 1-2 min. The protein concentration is determined by the Bradford method, and aliquots are stored at −80° C. until use. For binding studies 60 mg Yttrium silicate SPA beads (Amersham) are mixed with an aliquot of membrane in binding buffer (50 mM Tris, 120 mM NaCl, 5 mM KCl, 2 mM CaCl2, 10 mM MgCl2) for 15 minutes with mixing. 50 ul of bead/membrane mixture is then added to each well of a 96 well plate, followed by 50 ul of 4 nM 3H-Vasopressin (American Radiolabeled Chemicals). For total binding measurement 100 ul of binding buffer are added to the respective wells, for non-specific binding 100 ul of […] cold vasopressin and for compound testing 100 ul of a serial dilution of each compound in 2% DMSO. The plate is incubated 1 h at room temperature, centrifuged 1 min at 1000 g and counted on a Packard Top-Count. Non-specific binding counts are subtracted from each well, and data is normalized to the maximum specific binding set at 100%. To calculate an IC 50 the curve is fitted using a non-linear regression model (XLfit), and the Ki is calculated using the Cheng-Prussoff equation.
Background: Loss of bound radioactivity is the signal in a displacement assay; it reports binding, not function.

Each structure is given as a SMILES string.

A word on the Ki: it is the dissociation constant of the complex between target and ligand, obtained from inhibition or displacement. A lower Ki goes with tighter binding.

T1 sequence (P37288 whole entry): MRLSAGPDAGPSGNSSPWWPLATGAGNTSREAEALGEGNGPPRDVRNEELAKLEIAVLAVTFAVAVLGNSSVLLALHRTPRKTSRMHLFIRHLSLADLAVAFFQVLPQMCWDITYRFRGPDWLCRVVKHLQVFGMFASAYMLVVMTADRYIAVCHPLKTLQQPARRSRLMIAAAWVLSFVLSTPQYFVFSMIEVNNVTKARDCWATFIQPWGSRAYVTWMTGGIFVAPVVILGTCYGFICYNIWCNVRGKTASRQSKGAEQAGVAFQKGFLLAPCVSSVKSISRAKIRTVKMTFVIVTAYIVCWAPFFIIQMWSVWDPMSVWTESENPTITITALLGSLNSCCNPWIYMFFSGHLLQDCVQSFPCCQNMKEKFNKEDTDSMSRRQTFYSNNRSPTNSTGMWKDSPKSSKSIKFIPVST

Consider `Cc1c(C(=O)N2CCC3(CC2)C(=O)N(C)CN3c2ccccc2)c2ccccc2n1Cc1ccccc1` [Example 1, 8-[(1-Benzyl-2-methyl-1H-indol-3-yl)carbonyl]-3-methyl-1-phenyl-1,3,8-triazaspiro[4.5]decan-4-one], for which the inhibition constant (Ki) was determined as 0.368 µM.

As to `Cc1c(C(=O)N2CCC3(CC2)C(=O)NCN3c2ccccc2)c2ccccc2n1Cc1ccccc1` [Example 2, 8-(1-Benzyl-2-methyl-1H-indole-3-carbonyl)-1-phenyl-1,3,8-triaza-spiro[4.5]decan-4-one], the affinity, expressed as Ki, was 0.367 µM.

Compound `CN(C)CCn1cc(C(=O)N2CCC3(CC2)C(=O)N(C)CN3c2ccccc2)c2ccc(Cl)cc21` [Example 7, 8-({6-Chloro-1-[2-(dimethylamino)ethyl]-1H-indol-3-yl}carbonyl)-3-methyl-1-phenyl-1,3,8-triazaspiro[4.5]decan-4-one] returned a Ki of 0.156 µM.

The compound `CNC(=O)Cn1cc(C(=O)N2CCC3(CC2)C(=O)N(C)CN3c2ccccc2)c2ccc(Cl)cc21` [Example 8, 2-{6-Chloro-3-[(3-methyl-4-oxo-1-phenyl-1,3,8-triazaspiro[4.5]dec-8-yl)carbonyl]-1H-indol-1-yl}-N-methylacetamide] yielded an inhibition constant (Ki) of 0.037 µM.

As to `CN1CN(c2ccccc2)C2(CCN(C(=O)c3cn(Cc4cc(F)cc(F)c4)c4cc(Cl)ccc34)CC2)C1=O` [Example 9, 8-{[6-Chloro-1-(3,5-difluorobenzyl)-1H-indol-3-yl]carbonyl}-3-methyl-1-phenyl-1,3,8-triazaspiro[4.5]decan-4-one], the Ki is 0.021 µM.

Compound `CN(C)C(=O)Cn1cc(C(=O)N2CCC3(CC2)C(=O)N(C)CN3c2ccccc2)c2ccc(Cl)cc21` [Example 10, 2-{6-Chloro-3-[(3-methyl-4-oxo-1-phenyl-1,3,8-triazaspiro[4.5]dec-8-yl)carbonyl]-1H-indol-1-yl}-N,N-dimethylacetamide] had a Ki of 0.014 µM.

Turning to `CN1CN(c2ccccc2)C2(CCN(C(=O)c3cn(Cc4ccccc4)c4cc(Cl)ccc34)CC2)C1=O` [Example 11, 8-[(1-Benzyl-6-chloro-1H-indol-3-yl)carbonyl]-3-methyl-1-phenyl-1,3,8-triazaspiro[4.5]decan-4-one], the Ki turned out to be 0.045 µM.

`CN1CN(c2ccccc2)C2(CCN(C(=O)c3cn(Cc4cccc(Cl)c4F)c4cc(Cl)ccc34)CC2)C1=O` [Example 13, 8-{[6-Chloro-1-(3-chloro-2-fluorobenzyl)-1H-indol-3-yl]carbonyl}-3-methyl-1-phenyl-1,3,8-triazaspiro[4.5]decan-4-one] registered a Ki of 0.073 µM.

With `CN(C)CCNC(=O)Cn1cc(C(=O)N2CCC3(CC2)C(=O)N(C)CN3c2ccccc2)c2ccc(Cl)cc21` [Example 14, 2-{6-Chloro-3-[(3-methyl-4-oxo-1-phenyl-1,3,8-triazaspiro[4.5]dec-8-yl)carbonyl]-1H-indol-1-yl}-N-[2-(dimethylamino)ethyl]acetamide], the Ki turned out to be 0.184 µM.

As for `Cc1c(C(=O)N2CCC3(CC2)OCCO3)c2ccccc2n1Cc1ccccc1` [Example 15, (1-Benzyl-2-methyl-1H-indol-3-yl)-(1,4-dioxa-8-aza-spiro[4.5]dec-8-yl)-methanone], the Ki amounted to 0.424 µM.

`O=C(c1c[nH]c2cc(Cl)ccc12)N1CCC2(CC1)OCCO2` [Example 16, 8-[(6-Chloro-1H-indol-3-yl)carbonyl]-1,4-dioxa-8-azaspiro[4.5]decane] registered a Ki of 0.284 µM.

The values above are taken from patent publication US7790752B2, “Indol-3-yl-carbonyl-azaspiro derivatives” (Hoffmann-La Roche Inc., priority 2005, dated 2010).
